Read-outs that look alike come from different tables or passages of the source. One block for each compound: values may come before it.
Assays:
[1] = target: phosphorylated PDK1 (Homo sapiens (Human), UniProt O15530); experiment: PDK1 kinase assay (coupled PDK1/AKT/FAM-crosstide, IMAP); assay type: biochemical; details: 0.5 nM phosphorylated PDK1, 24 μM ATP; read-out: Inhibition of phospo-PDK1 in vitro IC50
[2] = tested on: phospho-akt (Thr308); experiment: phospho-akt (Thr308) MSD ELISA in PC-3 cells; assay type: cell-based; details: Homo sapiens; for EC50: PC-3, 2 h; for inhibition at 1 µM / inhibition at 10 µM: read-out: Percent Inhibition of phospho-Akt (308) By MSD ELISA
Summary of the method: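 Read-out is MSD electrochemiluminescence after lysate capture overnight at 4 degrees and 1 hr RT detection-antibody step. Before lysis, overnight-plated PC-3 cells received three-fold serial dilutions of inhibitor in serum-free medium, with DMSO-only high controls.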

[3] = target: dephosphorylated PDK1 (Homo sapiens (Human), UniProt O15530); experiment: PDK1 kinase assay (coupled PDK1/AKT/FAM-crosstide, IMAP); assay type: biochemical; details: 25 nM un-phosphorylated PDK1, 24 μM ATP; read-out: Inhibition of dephospo-PDK1 in vitro IC50
Protocol: A PDK1 kinase assay was performed as follows. PDK1 (amino acids 51-360) and AKT2 (amino acids 140-467 fused to PIFtide, amino acids […]) were expressed as N-terminally tagged GST fusion proteins in insect cells and purified to greater than 90% homogeneity. PDK1 protein was divided into two fractions, one of which was subsequently dephosphorylated. To generate dephosphorylated PDK1, the PDK1 was reacted with GST-tagged lambda-phosphatase in vitro. GST was subsequently cleaved proteolytically for both phosphorylated and dephosphorylated PDK1. Protein preparations were run on glutathione Sepharose columns to remove GST and GST-tagged lambda-phosphatase, if present. Phosphorylated PDK1 and dephosphorylated PDK1 were verified by mass-spectrometry. Enzyme activity was determined in a coupled PDK1/AKT/FAM-crosstide assay using either phosphorylated or unphosphorylated PDK1 and phosphorylation of FAM-crosstide was determined by standard IMAP protocol (Molecular Devices). For inhibition studies, compounds were titrated 3-fold in DMSO and diluted 40-fold into assay buffer (10 mM Tris HCl pH7.2; 10 mM MgCl2; 0.01% Triton X-100; 1 mM DTT) containing PDK1, AKT2, and FAM-crosstide. (final concentrations: 25 nM un-phosphorylated PDK1 or 0.5 nM phosphorylated PDK1, 30 nM unphosphorylated AKT2, and 100 nM crosstide substrate). The kinase reaction was initiated by adding ATP to a final concentration of 24 μM for both forms of PDK1 and incubated at 25° C. for 30 min. To detect assay product, the kinase reaction was combined with Progressive Binding Solution (1:600 Progressive Binding Reagent, 50% Buffer A, 50% Buffer B, Molecular Devices) in a 1:3 ratio. The mixture was incubated for 2 hours at 25° C. and the plate was scanned on an Analyst AD with excitation at 485 nm and emission at 530 nm. The fluorescence polarization value “P” is defined by the equation below. The value “mP” is generated by multiplying the P value for each reaction well by a factor of 1000. The value “ΔmP” for each well is the mP value for that well minus the mP value for the average negative control. P=(Fpar−Fperp)/(Fpar+Fperp) Eq.:
Where “par” is fluorescence intensity parallel to the excitation plane; and “perp” is fluorescence intensity perpendicular to the excitation plane. ΔmP values were plotted as a function of compound concentration and the data were analyzed with a 4-parameter fit using GraphPad Prism software.

[4] = PC-3 cells, 2 hours, no serum, read-out: Inhibition of P308 Akt in cells using MSD EC50
[5] = PC-3 cells, 2 hours, no serum, read-out: Reduction of Cellular Levels of Akt p308 By MSD ELISA (EC50 μM)
[6] = read-out: Reduction of Cellular Levels of Akt p308 By MSD ELISA (EC50 μM)

Sequence of dephosphorylated PDK1 (O15530 51-360): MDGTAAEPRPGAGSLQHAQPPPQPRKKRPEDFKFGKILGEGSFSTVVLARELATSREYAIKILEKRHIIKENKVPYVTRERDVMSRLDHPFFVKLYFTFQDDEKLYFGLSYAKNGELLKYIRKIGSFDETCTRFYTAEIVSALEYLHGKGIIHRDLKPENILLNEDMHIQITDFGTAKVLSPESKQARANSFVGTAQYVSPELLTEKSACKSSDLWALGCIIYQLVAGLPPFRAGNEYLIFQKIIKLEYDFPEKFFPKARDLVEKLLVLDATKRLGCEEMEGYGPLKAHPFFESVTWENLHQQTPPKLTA
Sequence of phosphorylated PDK1 (O15530 51-360): as above

Structure (SMILES): O=C(N[C@H]1CC[C@@H](c2c[nH]c3ncccc32)CC1)c1cccn(Cc2ccc(F)c(F)c2)c1=O [Cpd 1]
IC50 [1]: < 500 nM
EC50 [2, 4]: > 5 µM
EC50 [2, 5]: > 5 µM
IC50 [3]: < 500 nM

Structure (SMILES): O=C(NCc1cccc(-c2ccc3ncnn3c2)c1)c1cccn(Cc2ccc(F)c(F)c2)c1=O [Cpd 3]
IC50 [1]: < 500 nM
EC50 [2, 5]: 1 to 5 µM
inhibition at 1 µM ([2]; PC-3 cells): < 25%
inhibition at 10 µM ([2]; PC-3 cells): > 75%
IC50 [3]: < 500 nM

Structure (SMILES): O=C(NCc1ccc(-c2n[nH]c3ncccc23)s1)c1cccn(Cc2ccc(F)c(F)c2)c1=O [Cpd 7]
IC50 [1]: < 500 nM
EC50 [2, 4]: < 1 µM
EC50 [2, 5]: < 1 µM
inhibition at 1 µM ([2]; PC-3 cells): 25 to 75%
inhibition at 10 µM ([2]; PC-3 cells): > 75%
IC50 [3]: < 500 nM

Structure (SMILES): O=C(O)C[C@@H](NC(=O)c1cccn(Cc2ccc(F)c(F)c2)c1=O)c1ccc(-c2c[nH]c3ncccc23)s1 [Cpd 15]
IC50 [1]: < 500 nM
EC50 [2, 6]: > 5 µM
IC50 [3]: < 500 nM

Structure (SMILES): O=C(NCc1ccc(-c2c[nH]c3ncc(Cl)cc23)s1)c1cccn(Cc2ccc(F)c(F)c2)c1=O [Cpd 23]
IC50 [1]: < 500 nM
EC50 [2, 4]: > 5 µM
EC50 [2, 5]: > 5 µM
IC50 [3]: < 500 nM

Structure (SMILES): NC(=O)C(NC(=O)c1cccn(Cc2ccc(F)c(F)c2)c1=O)c1ccc(-c2c[nH]c3ncccc23)s1 (centres unmarked) [Cpd 24]
IC50 [1]: < 500 nM
EC50 ([2]; read-out: Inhibition of P308 Akt in cells using MSD EC50): 1 to 5 µM
EC50 [2, 6]: 1 to 5 µM
IC50 [3]: < 500 nM

Structure (SMILES): O=C(NCc1ccc(-c2ccc3[nH]ncc3c2)s1)c1cccn(Cc2ccc(F)c(F)c2)c1=O [Cpd 52]
IC50 [1]: < 500 nM
EC50 [2, 4]: 1 to 5 µM
IC50 [3]: < 500 nM

Structure (SMILES): O=C(NCc1ccc(-c2cccc3[nH]ncc23)s1)c1cccn(Cc2ccc(F)c(F)c2)c1=O [Cpd 58]
IC50 [1]: < 500 nM
EC50 [2, 4]: 1 to 5 µM
IC50 [3]: < 500 nM

Structure (SMILES): O=C(NCCOc1ccc2[nH]c(=O)[nH]c2c1)c1cccn(Cc2ccc(F)c(F)c2)c1=O [Cpd 113]
IC50 [1]: < 500 nM
EC50 [2, 4]: > 5 µM
IC50 [3]: < 500 nM

Structure (SMILES): O=C(NCc1csc(-c2c[nH]c3ncccc23)n1)c1cccn(Cc2ccc(F)c(F)c2)c1=O [Cpd 121]
IC50 [1]: < 500 nM
EC50 [2, 4]: < 1 µM
IC50 [3]: < 500 nM

Structure (SMILES): O=C(NCc1nnc(-c2c[nH]c3ncccc23)o1)c1cccn(Cc2ccc(F)c(F)c2)c1=O [Cpd 125]
IC50 [1]: < 500 nM
EC50 [2, 4]: 1 to 5 µM
EC50 [2, 5]: 1 to 5 µM
inhibition at 1 µM ([2]; PC-3 cells): 25 to 75%
inhibition at 10 µM ([2]; PC-3 cells): > 75%
IC50 [3]: < 500 nM

Structure (SMILES): O=C(Nc1cccc(Cc2c[nH]c3ncccc23)c1)c1cccn(Cc2ccc(F)c(F)c2)c1=O [Cpd 128]
IC50 [1]: 500 to 10000 nM
EC50 [2, 4]: > 5 µM
IC50 [3]: < 500 nM

Structure (SMILES): O=C(NCc1noc(-c2c[nH]c3ncccc23)n1)c1cccn(Cc2ccc(C(F)(F)F)c(F)c2)c1=O [Cpd 141]
IC50 [1]: < 500 nM
EC50 [2, 4]: 1 to 5 µM
EC50 [2, 5]: 1 to 5 µM
IC50 [3]: < 500 nM

Structure (SMILES): O=C(NCc1noc(-c2c[nH]c3ncccc23)n1)c1cccn(Cc2ccc(C(F)(F)F)cc2)c1=O [Cpd 143]
IC50 [1]: < 500 nM
EC50 [2, 4]: > 5 µM
EC50 [2, 5]: > 5 µM
IC50 [3]: < 500 nM

IC50 [1]: < 500 nM
EC50 [2, 4]: 1 to 5 µM
EC50 [2, 5]: 1 to 5 µM
IC50 [3]: < 500 nM
Structure (SMILES): O=C(N[C@H](COc1ccc2[nH]c(=O)[nH]c2c1)c1ccc(F)cc1)c1cccn(Cc2ccc(C(F)(F)F)cc2)c1=O [Cpd 148]

Structure (SMILES): O=C(NCc1noc(-c2c[nH]c3ncccc23)n1)c1cccn(Cc2cc(F)cc(F)c2)c1=O [Cpd 150]
IC50 [1]: < 500 nM
EC50 [2, 4]: > 5 µM
IC50 [3]: < 500 nM

Structure (SMILES): O=C(NCc1cc(-c2c[nH]c3ncccc23)[nH]n1)c1cccn(Cc2cc(F)c(F)c(F)c2)c1=O [Cpd 152]
IC50 [1]: < 500 nM
EC50 [2, 4]: 1 to 5 µM
IC50 [3]: < 500 nM

Structure (SMILES): O=C1Cc2ccc(/C=C/CNC(=O)c3cccn(Cc4cc(F)c(F)c(F)c4)c3=O)cc2N1 [Cpd 166]
IC50 [1]: < 500 nM
EC50 [2, 4]: > 5 µM
IC50 [3]: < 500 nM

Structure (SMILES): Cc1ccc(NC(=O)c2cccn(Cc3ccc(F)c(F)c3)c2=O)cc1-c1ccc2[nH]c(=O)[nH]c2c1 [Cpd 167]
IC50 [1]: 500 to 10000 nM
EC50 [2, 4]: > 5 µM
IC50 [3]: 500 to 10000 nM

Source: patent US9873693B2 (Sunesis Pharmaceuticals, Inc., priority 2006, dated 2018)
